Source: patent US5169857A, “7-(polysubstituted pyridyl)-hept-6-endates useful for treating hyperproteinaemia, lipoproteinaemia or arteriosclerosis” (Bayer Aktiengesellschaft, priority 1988, dated 1992)

Test system: serum cholesterol
Assay: subchronic action on the blood cholesterol values of dogs in feeding experiments
Format: in vivo
Conditions: 8 mg/kg p.o. daily for 2 weeks; beagle dogs; colestyramine 4 g/100 g of feed throughout; vs values before administration
Protocol: The subchronic action of the compounds according to the invention on the blood cholesterol values of dogs was tested in feeding experiments of several weeks duration. For this, the substance to be investigated was given p.o. once daily in a capsule to healthy beagle dogs together with the feed over a period of time lasting several weeks. Colestyramine (4 g/100 g of feed) as the […] sequestrant was additionally admixed in the feed during the entire experimental period, i.e. before, during and after the administration period of the substances to be investigated. Venous blood was taken from the dogs twice weekly and the serum cholesterol was determined enzymatically using a commercial test kit. The serum cholesterol values during the administration period were compared with the serum cholesterol values before the administration period (controls).

SMILES	lowering of the serum cholesterol
COC(=O)C[C@H](O)C[C@H](O)/C=C/c1c(C(C)C)nc(C(C)C)c(COCc2ccccc2)c1-c1ccc(F)cc1 (relative stereo) [Example 17, Methyl erythro-(E)-7-[3-benzyloxymethyl-2,6-diisopropyl-4-(4-fluorophenyl)-pyrid-5-yl]-3,5-dihydroxy-hept-6-enoate]	about 66%

Target: T1, HMG-CoA reductase (3-hydroxy-3-methyl-glutaryl coenzyme A reductase) (Rattus norvegicus, UniProt P51639)
T1 sequence (P51639 1-887): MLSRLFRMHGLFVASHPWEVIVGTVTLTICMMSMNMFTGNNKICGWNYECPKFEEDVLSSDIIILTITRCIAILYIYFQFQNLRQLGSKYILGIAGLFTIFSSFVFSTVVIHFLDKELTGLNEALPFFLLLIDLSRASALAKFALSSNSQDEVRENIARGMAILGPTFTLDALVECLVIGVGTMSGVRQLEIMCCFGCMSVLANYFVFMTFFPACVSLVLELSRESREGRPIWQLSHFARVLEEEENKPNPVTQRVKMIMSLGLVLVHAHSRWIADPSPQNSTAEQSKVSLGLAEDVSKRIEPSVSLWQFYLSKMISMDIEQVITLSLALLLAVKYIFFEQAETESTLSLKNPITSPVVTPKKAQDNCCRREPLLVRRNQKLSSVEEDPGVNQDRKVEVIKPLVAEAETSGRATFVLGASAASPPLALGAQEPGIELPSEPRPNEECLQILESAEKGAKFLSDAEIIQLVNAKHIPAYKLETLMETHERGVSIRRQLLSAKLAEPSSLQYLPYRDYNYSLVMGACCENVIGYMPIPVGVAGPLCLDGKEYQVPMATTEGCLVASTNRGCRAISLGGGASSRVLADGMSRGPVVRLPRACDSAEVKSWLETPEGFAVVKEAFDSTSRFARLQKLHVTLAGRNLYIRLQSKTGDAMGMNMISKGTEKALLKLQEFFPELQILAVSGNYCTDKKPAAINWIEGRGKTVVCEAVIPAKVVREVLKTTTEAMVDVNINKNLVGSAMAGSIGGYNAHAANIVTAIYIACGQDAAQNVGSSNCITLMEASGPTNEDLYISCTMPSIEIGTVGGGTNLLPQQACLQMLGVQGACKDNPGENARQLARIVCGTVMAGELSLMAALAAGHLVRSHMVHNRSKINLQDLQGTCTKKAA
Assay: determination of HMG-CoA reductase enzyme activity (rat liver enzyme preparation); relative inhibitory potency vs mevinolin
Conditions: relative inhibitory potency from IC50 values; IC50 of reference mevinolin set at 1; 20 min preincubation, 60 min at 37° C.
Protocol: Male Rico rats (body weight 300-400 g) were treated for 11 days with Altromin powdered feed, to which 40 g of colestyramine/kg of feed was added. After decapitation, the liver was removed from the animals and placed on ice. The livers were comminuted and homogenized 3 times in a Potter-Elvejem homogenizer in 3 volumes of 0.1 M saccharose, 0.05 M KCl, 0.04 M Kx Hy phosphate, 0.03 M ethylenediaminetetraacetic acid, 0.002 M dithiothreitol (SPE) buffer pH 7.2. The mixture was subsequently centrifuged for 15 minutes at 15,000* g and the sediment rejected. The supernatant was sedimented for 75 minutes at 100,000 g. The pellet is taken up in 1/4 volume of SPE buffer, homogenized once again and subsequently centrifuged again for 60 minutes at 100,000 g. The pellet is taken up using the 5-fold amount of its volume of SPE buffer, homogenized and frozen and stored at -78° C. (=enzyme solution).
For testing, the test compounds (or mevinolin as a reference substance) were dissolved in dimethylformamide with the addition of 5% by volume of 1 N NaOH and employed in the enzyme test in various concentrations using 10 μl. The test was started after preincubation of the compound with the enzyme at 37° C. for 20 minutes. The test batch was 0.380 ml and contained 4 μmol of glucose-6-phosphate, 1.1 mg of bovine serum albumin, 2.1 μmol of dithiothreitol, 0.35 μmol of NADP, 1 unit of glucose-6-phosphate dehyrogenase 35 μmol of KxHy phosphate PH 7.2, 20 μl of enzyme preparation and 56 nmol of 3x hydroxy-3-methyl-glutarylconenzyme A (glutaryl-3-^14 C) 100,000 dpm.
After incubation for 60 minutes at 37° C., the batch was centrifuged and 600 μl of the supernatant was applied to a 0.7×4 cm column filled with a 5-chloride 100-200 mesh (anion exchanger). It was washed with 2 ml of distilled water and 3 ml of aquasol were added to the runnings plus washing water and counted in the LKB scintillation counter. IC50 values were determined by intrapolation by plotting the percentage inhibition against the concentration of the compound in the test. To determine the relative inhibitory potency, the IC50 value of the reference substance mevinolin was set at 1 and compared with the simultaneously determined IC50 value of the test compound.

SMILES	Rel. Activity (Mevinolin = 1)
COCc1c(C2CC2)nc(C(C)C)c(/C=C/[C@@H](O)C[C@@H](O)CC(=O)OC)c1-c1ccc(F)cc1 (relative stereo) [Example 85, Methyl erythro-(E)-7-[6-cyclopropyl-2-isopropyl-4-(4-fluorophenyl)-5-methoxymethyl-pyrid-3-yl]-3,5-dihydroxy-hept-6-enoate]	20
COC(=O)C[C@H](O)C[C@H](O)/C=C/c1c(C(C)C)nc(C(C)C)c(-c2ccccc2)c1-c1ccc(F)cc1 (relative stereo) [Example 99]	20
CCOC(=O)c1c(C(C)C)nc(C(C)C)c(/C=C/[C@@H](O)C[C@@H](O)CC(=O)OC)c1-c1ccc(F)cc1 (relative stereo) [Example 100, Methyl erythro-(E)-7-[2,6-diisopropyl-4-(4-fluorophenyl)-5-carboxyethyl-pyrid-3-y]-3,5-dihydroxy-hept-6-enoate]	30
COC(=O)C[C@H](O)C[C@H](O)/C=C/c1c(C(C)C)nc(C(C)C)c(COCc2ccccc2)c1-c1ccc(F)cc1 (relative stereo) [Example 17, Methyl erythro-(E)-7-[3-benzyloxymethyl-2,6-diisopropyl-4-(4-fluorophenyl)-pyrid-5-yl]-3,5-dihydroxy-hept-6-enoate]	20
COC(=O)C[C@H](O)C[C@H](O)/C=C/c1c(-c2ccc(F)cc2)nc(C)c(C#N)c1C(C)C (relative stereo) [Example 139, Methyl erythro-(E)-7-[5-cyano-2-(4-fluorophenyl)-4-isopropyl-6-methyl-pyrid-3-yl]-3,5-dihydroxy-hept-6-enoate]	20
COC(=O)C[C@H](O)C[C@H](O)/C=C/c1c(C(C)C)nc(C(C)C)c(CSCc2ccccc2)c1-c1ccc(F)cc1 (relative stereo) [Example 107, Methyl erythro-(E)-7-[2,6-diisopropyl-4-[4-fluorophenyl)-5-benzylthio-methyl-pyrid-3-yl]-3,5-dihydroxy-hept-6-enoate]	3
CCC(C)(C)C(=O)OCc1c(C(C)C)nc(C(C)C)c(/C=C/[C@@H](O)C[C@@H](O)CC(=O)OC)c1-c1ccc(F)cc1 (relative stereo) [Example 70, Methyl erythro-(E)-7-[2,6-diisopropyl-5-(2,2-dimethyl-butyryloxymethyl)-4-(4-fluorophenyl)-pyrid-3-yl]-3,5-dihydroxy-hept-6-enoate]	30
COC(=O)C[C@H](O)C[C@H](O)/C=C/c1c(C(C)C)nc(C(C)C)c(COC(C)=O)c1-c1ccc(F)cc1 (relative stereo) [Example 72, methyl erythro-(E)-7-[3-acetoxymethyl-2,6-diisopropyl-4-(4-fluorophenyl)-pyrid-5-yl]-3,5-dihydroxy-hept-6-enoate]	17
COC(=O)C[C@H](O)C[C@H](O)/C=C/c1c(C(C)C)nc(C(C)C)c(COc2ccccc2)c1-c1ccc(F)cc1 (relative stereo) [Example 89, Methyl erythro-(E)-7-[2,6-diisopropyl-4-(4-fluorophenyl)-5-phenoxymethyl-pyrid-3-yl]-3,5-dihydroxy-hept-6-enoate]	10
COC(=O)C[C@H](O)C[C@H](O)/C=C/c1c(C(C)C)nc(C(C)C)c(CN2CCOCC2)c1-c1ccc(F)cc1 (relative stereo) [Example 105, Methyl erythro-(E)-7-[2,6-diisopropyl-4-(4-fluorophenyl)-5-morpholinomethyl-pyrid-3-yl]-3,5-dihydroxy-hept-6-enoate]	4
